How the values were obtained:
[1] = target: Poly [ADP-ribose] polymerase 1 (Homo sapiens, UniProt P09874); experiment: Inhibition of PARP1
HeLa = experiment: Ratio of GI50 for methyl methane sulphonate to drug in human HeLa B cells; type: functional

Sequence of Poly [ADP-ribose] polymerase 1 (P09874 whole entry): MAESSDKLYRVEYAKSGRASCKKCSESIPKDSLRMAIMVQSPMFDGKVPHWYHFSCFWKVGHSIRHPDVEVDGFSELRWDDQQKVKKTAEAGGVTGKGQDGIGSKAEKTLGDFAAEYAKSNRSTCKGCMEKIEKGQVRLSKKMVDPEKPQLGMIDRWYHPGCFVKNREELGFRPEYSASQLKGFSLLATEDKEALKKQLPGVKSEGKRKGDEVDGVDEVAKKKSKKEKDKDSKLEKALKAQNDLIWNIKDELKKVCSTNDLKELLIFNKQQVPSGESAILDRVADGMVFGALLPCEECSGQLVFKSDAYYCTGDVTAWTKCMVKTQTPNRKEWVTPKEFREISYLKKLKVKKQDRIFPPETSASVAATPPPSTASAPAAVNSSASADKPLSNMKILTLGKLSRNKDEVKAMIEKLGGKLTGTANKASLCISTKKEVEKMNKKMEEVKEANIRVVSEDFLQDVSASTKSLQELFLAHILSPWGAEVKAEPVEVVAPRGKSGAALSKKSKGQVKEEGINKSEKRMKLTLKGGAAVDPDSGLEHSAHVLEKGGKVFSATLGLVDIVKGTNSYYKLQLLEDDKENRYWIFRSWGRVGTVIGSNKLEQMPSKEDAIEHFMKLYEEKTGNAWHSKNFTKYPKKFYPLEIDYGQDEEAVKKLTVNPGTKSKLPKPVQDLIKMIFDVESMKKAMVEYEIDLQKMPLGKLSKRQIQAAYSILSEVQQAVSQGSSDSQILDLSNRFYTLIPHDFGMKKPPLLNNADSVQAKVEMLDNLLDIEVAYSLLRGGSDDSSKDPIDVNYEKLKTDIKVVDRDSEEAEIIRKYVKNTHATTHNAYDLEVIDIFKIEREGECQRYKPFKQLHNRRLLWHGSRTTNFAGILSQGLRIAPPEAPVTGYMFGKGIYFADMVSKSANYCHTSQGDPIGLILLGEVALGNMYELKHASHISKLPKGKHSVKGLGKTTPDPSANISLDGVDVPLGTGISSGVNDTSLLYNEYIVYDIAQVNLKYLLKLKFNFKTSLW

IC50 [1] [nM] | SMILES | PF50 (HeLa)
> 10000 | NC(=O)c1c(F)ccc(F)c1OCc1ccc(F)c(C(=O)N2CCNCC2)c1 | 
29 | NC(=O)c1cc(F)ccc1OCc1ccc(F)c(C(=O)N2CCNCC2)c1 | 1.6
> 10000 | NC(=O)c1ccccc1OCCc1ccc(F)c(C(=O)N2CCNCC2)c1 | 
240 | NC(=O)c1cc(F)c(F)cc1OCc1ccc(F)c(C(=O)N2CCNCC2)c1 | 1.08
188 | NC(=O)c1ccccc1OCc1cccc(C(=O)N2CCN(C(=O)C3CCCC3)CC2)c1 | 1.1
61 | NC(=O)c1ccccc1OCc1ccc(F)c(C(=O)N2CCNCC2)c1 | 1.4
 | CC(Oc1ccccc1)C(=O)N1CCN(C(=O)c2cc(CCOc3ccccc3C(N)=O)ccc2F)CC1 (stereo unspecified) | 1.5
250 | NC(=O)c1ccc(F)cc1OCc1ccc(F)c(C(=O)N2CCNCC2)c1 | 1.2
8 | O=C(c1cccc(Cc2n[nH]c(=O)c3ccccc23)c1)N1CCN(C(=O)C2CCCC2)CC1 | 4.8
200 | NC(=O)c1ccccc1OCCc1cccc(C(=O)N2CCN(C(=O)C3CCCC3)CC2)c1 | 
200 | CC(Oc1ccccc1)C(=O)N1CCN(C(=O)c2cccc(CCOc3ccccc3C(N)=O)c2)CC1 (stereo unspecified) | 
 | NC(=O)c1cc(F)ccc1OCc1ccc(F)c(C(=O)N2CCN(C(=O)C3CCCC3)CC2)c1 | 1.5
2 | O=C(c1cccc(Cc2n[nH]c(=O)c3ccccc23)c1)N1CCNCC1 | 2.7
50 | CC(Oc1ccccc1)C(=O)N1CCN(C(=O)c2cc(COc3ccccc3C(N)=O)ccc2F)CC1 (stereo unspecified) | 3.7
24 | NC(=O)c1ccccc1OCc1ccc(F)c(C(=O)N2CCN(C(=O)C3CCCC3)CC2)c1 | 1.96
36 | CC(Oc1ccccc1)C(=O)N1CCN(C(=O)c2cccc(COc3ccccc3C(N)=O)c2)CC1 (stereo unspecified) | 2
1500 | NC(=O)c1cc(F)cc(F)c1OCc1ccc(F)c(C(=O)N2CCNCC2)c1 | 0.9

SMILES | IC50 [1] [nM] | PF50 (HeLa)
NC(=O)c1ccccc1OCCc1cccc(C(=O)N2CCNCC2)c1 | 970 | 1.06
CC(Oc1ccccc1)C(=O)N1CCN(C(=O)c2cc(COc3ccc(F)cc3C(N)=O)ccc2F)CC1 (stereo unspecified) | 14 | 1.12
CC(Oc1ccccc1)C(=O)N1CCN(C(=O)c2cccc(Cc3n[nH]c(=O)c4ccccc34)c2)CC1 (stereo unspecified) | 5 | 29.7
NC(=O)c1ccccc1OCc1cccc(C(=O)N2CCNCC2)c1 | 18 | 1.3
